Measurements taken from patent EP1510220B1 (priority 1993, dated 1994).

Experiments:
[1] = test system: Rat vascular smooth muscle cells; experiment: Proliferation of rat vascular smooth muscle cells by cell counting; assay type: cell-based
Method: Cell culture, DNA synthesis assay and cell counting. Rat vascular smooth muscle cells were cultured after enzymatic dispersion of the aortic media from 12-17 week old Wistar rats as described in Grainger et al., Biochem. J., 277: 145-151, 1991. When the cells reached confluence (after about 6 days) the cells were released with trypsin/EDTA (available from Gibco) and diluted 1:2 in Dulbecco's modification of Eagle's medium (DMEM; available from ICN/Flow) supplemented with 100 U/ml penicillin and 10% fetal calf serum (FCS). The cells were then replated on tissue culture plastic (available from ICN/Flow) at approximately 1 x 10^4 cells/cm^2. The cells were subcultured repeatedly in this way when confluence was attained (about every 4 days), and the cells were used between passages 6 and 12.
Cells were prepared for counting by hemocytometer from triplicate culture dishes as described in Grainger et al., Biochem. J., 277:145-151, 1991. Cells were also counted by direct microscopic observation of gridded culture dishes. The grids were scored into the plastic on the inner surface, so that the cells could not migrate into or out of the area being counted during the experiment. Cells in each of four squares in two separate wells were counted at each time point. All cell counting experiments were repeated on at least three separate cultures.
A stock solution of tamoxifen (5 mM; available from ICI Pharmaceuticals) was made up in 10% ethanol (EtOH) and diluted in DMEM and 10% FCS to give the final concentration. The effects of each tamoxifen concentration were compared with the effects observed in control wells containing the same final concentration of the ethanol vehicle. Recombinant TGF-beta (available from Amersham International) was dissolved in 25 mM Tris/Cl to give a 5 microgram/ml stock solution and sterile filtered through a Spinnex Tube (such as a Centrex Disposable Microfilter Unit available from Rainin Instrument Company, Inc., Woburn, MA). Neutralizing antiserum to TGF-beta (BDA19; available from R & D Systems) was reconstituted in sterile MilliQ water (available from Millipore Corporation, Bedford, MA). At 10 micrograms/ml, this antibody completely abolished the activity of 10 ng/ml recombinant TGF-beta on subcultured (8th passage) vascular smooth muscle cells.

[2] = test system: Vascular smooth muscle cells (BO54); experiment: Scratch-migration assay with morphological toxicity grading; assay type: cell-based, baboon; design: key to Migration Grade in the Cleared Area of the Well / Migration Grade in an Undisturbed Region of the Well: - = no migration; +1 = minimal; +2 = mild; +3 = moderate; +4 = marked (maximum density; limit of cell contact inhibition) migration
Method: Scratch assays to determine the extent of smooth muscle cell migration inhibition by cytochalasin B were performed in accordance with the following protocol:
Vascular smooth muscle cells (BO54) were derived from explants of baboon aortic smooth muscle, as described in Example 1. The cells were grown in flat bottom, six well tissue culture plates, which hold about 5 ml of medium. The vascular smooth muscle cells were plated at 200,000 cells/well and placed at 37°C in a humidified 5% CO2 incubator for 18 hours. The wells were then scratched with a sterile portion of a single edge razor blade that was held by clamp or pliers and was brought aseptically into contact with the bottom of the well at a 90° angle. The cells from a small area along the scratch were removed by a sterile cotton tipped applicator while the blade was in contact with the bottom of the well. After incubation, the presence of cells in the "scratched" area is indicative of cell migration across the scratch line.
Briefly, a stock solution of cytochalasin B (Sigma Chemical Co.) in dimethyl sulfoxide (DMSO) at 1 mg/ml was prepared. Test dilutions of cytochalasin B or control medium were added. Each experiment included two sets of plates: • A set: Test agent exposure for 1, 3, 6, 8 and 10 days only; and • B set: Test agent exposure for 1, 3, 6, 8 and 10 days, followed by a seven day recovery time with control medium. Both sets of plates were fixed (10% formalin in PBS) and stained (0.02% crystal violet) at the end of the timed exposures. Test concentrations for cytochalasin B were 1, 0.1 and 0.01 µg/ml, and a negative medium control was included. Fresh medium and drug were supplied 3 times per week.
In this Table, "M" indicates Migration Grade, wherein - = no migration; +1 = minimal; +2 = mild; +3 = moderate; and +4 = marked (maximum density; limit of cell contact inhibition) migration of vascular smooth muscle cells into the cleared area adjacent to the scratch. In this Table, "T" denotes a morphological Toxicity Grade, wherein - = no toxicity; +1 = minimal; +2 = mild; +3 = moderate; and +4 = marked toxicity. The migration results are expressed as "Grade in the Cleared Area of the Well / Grade in an Undisturbed Region of the Well." The toxicity values represent a grade for all cells in each well.

[3] = 7-day Recovery Post Exposure, 0.01 µg/mL, Day 1
[4] = 7-day Recovery Post Exposure, 0.01 µg/mL, Day 3
[5] = 7-day Recovery Post Exposure, 0.01 µg/mL, Day 6
[6] = 7-day Recovery Post Exposure, 0.01 µg/mL, Day 8
[7] = 7-day Recovery Post Exposure, 0.01 µg/mL, Day 10
[8] = 7-day Recovery Post Exposure, 0.1 µg/mL, Day 1
[9] = 7-day Recovery Post Exposure, 0.1 µg/mL, Day 3
[10] = 7-day Recovery Post Exposure, 0.1 µg/mL, Day 6
[11] = 7-day Recovery Post Exposure, 0.1 µg/mL, Day 8
[12] = 7-day Recovery Post Exposure, 0.1 µg/mL, Day 10
[13] = 7-day Recovery Post Exposure, 1.0 µg/mL, Day 1
[14] = 7-day Recovery Post Exposure, 1.0 µg/mL, Day 3
[15] = 7-day Recovery Post Exposure, 1.0 µg/mL, Day 6
[16] = 7-day Recovery Post Exposure, 1.0 µg/mL, Day 8
[17] = 7-day Recovery Post Exposure, 1.0 µg/mL, Day 10
[18] = Continuous Exposure, 0.01 µg/mL, Day 1
[19] = Continuous Exposure, 0.01 µg/mL, Day 3
[20] = Continuous Exposure, 0.01 µg/mL, Day 6
[21] = Continuous Exposure, 0.01 µg/mL, Day 8
[22] = Continuous Exposure, 0.01 µg/mL, Day 10
[23] = Continuous Exposure, 0.1 µg/mL, Day 1
[24] = Continuous Exposure, 0.1 µg/mL, Day 3
[25] = Continuous Exposure, 0.1 µg/mL, Day 6
[26] = Continuous Exposure, 0.1 µg/mL, Day 8
[27] = Continuous Exposure, 0.1 µg/mL, Day 10
[28] = Continuous Exposure, 1.0 µg/mL, Day 1
[29] = Continuous Exposure, 1.0 µg/mL, Day 3
[30] = Continuous Exposure, 1.0 µg/mL, Day 6
[31] = Continuous Exposure, 1.0 µg/mL, Day 8
[32] = Continuous Exposure, 1.0 µg/mL, Day 10

Compound: CC/C(=C(\c1ccccc1)c1ccc(OCCN(C)C)cc1)c1ccccc1 [tamoxifen, trans-2-[4-(1,2-diphenyl-1-butenyl)phenoxy]-N,N-dimethylethylamine]
- cells that had divided by 64 hours ([1]; 33 micromolar): more than 90%
- time taken for 50% of the cells to divide after stimulation by serum ([1]; 33 micromolar, n=3, vehicle 35 +/-3 hours): 54 ± 2 h
- onset of increase in cell number after serum stimulation ([1]; 33 micromolar, time lapse photomicroscopy): no significant increase in cell number in the presence of tamoxifen until after 48 hours
- rate of proliferation ([1]; 50 micromolar with 10 micrograms/ml neutralizing antiserum against TGF-beta, 10% FCS): proliferated at the same rate as control cells
- reduction of the increase in cell number ([1]; 50 micromolar, 96 hours following the addition of serum, n=3, 5760 min, 50 µM): 66% +/-5.2
- inhibition at 50 µM ([1]; Rattus norvegicus, 50 micromolar, 96 hours following the addition of serum, n=3, read-out: reduction of the increase in cell number): 66%
- IC (maximal) ([1]; Rattus norvegicus, DMEM + 10% FCS, read-out: concentrations giving maximal inhibition of the rate of proliferation): > 33 µM
- IC50 ([1]; rat ED VSMC, read-out: half-maximal inhibition of proliferation): 2 to 5 µM

Compound: cytochalasin B
- ability to migrate following removal of the therapeutic agent (grade) ([2]; 0.1 µg/ml, even after 10 days of continuous exposure): +3 to +4
- migration of vascular smooth muscle cells into the cleared area adjacent to the scratch (grade) ([2]; 0.1 µg/ml, summary of Table 1): +1 to +2
- Migration Grade in an Undisturbed Region of the Well [2, 3]: +4
- Migration Grade in the Cleared Area of the Well [2, 3]: +3
- Migration Grade in an Undisturbed Region of the Well [2, 4]: +4
- Migration Grade in the Cleared Area of the Well [2, 4]: +3
- Migration Grade in an Undisturbed Region of the Well [2, 5]: +4/+4
- Migration Grade in the Cleared Area of the Well [2, 5]: +4/+4
- Migration Grade in an Undisturbed Region of the Well [2, 6]: +4/+4
- Migration Grade in the Cleared Area of the Well [2, 6]: +4/+4
- Migration Grade in an Undisturbed Region of the Well [2, 7]: +4/+4
- Migration Grade in the Cleared Area of the Well [2, 7]: +4/+4
- Migration Grade in an Undisturbed Region of the Well [2, 8]: +4
- Migration Grade in the Cleared Area of the Well [2, 8]: +3
- Migration Grade in an Undisturbed Region of the Well [2, 9]: +4
- Migration Grade in the Cleared Area of the Well [2, 9]: +3
- Migration Grade in an Undisturbed Region of the Well [2, 10]: +4
- Migration Grade in the Cleared Area of the Well [2, 10]: +3
- Migration Grade in an Undisturbed Region of the Well [2, 11]: +4
- Migration Grade in the Cleared Area of the Well [2, 11]: +3
- Migration Grade in an Undisturbed Region of the Well [2, 12]: +4/+4
- Migration Grade in the Cleared Area of the Well [2, 12]: +4/+4
- Migration Grade in an Undisturbed Region of the Well [2, 13]: +3
- Migration Grade in the Cleared Area of the Well [2, 13]: +2
- Migration Grade in an Undisturbed Region of the Well [2, 14]: +3
- Migration Grade in the Cleared Area of the Well [2, 14]: +2
- Migration Grade in an Undisturbed Region of the Well [2, 15]: +3
- Migration Grade in the Cleared Area of the Well [2, 15]: +2
- Migration Grade in an Undisturbed Region of the Well [2, 16]: +3
- Migration Grade in the Cleared Area of the Well [2, 16]: +2
- Migration Grade in an Undisturbed Region of the Well [2, 17]: +3
- Migration Grade in the Cleared Area of the Well [2, 17]: +2
- Migration Grade in an Undisturbed Region of the Well [2, 18]: +3
- Migration Grade in the Cleared Area of the Well [2, 18]: +1
- Migration Grade in an Undisturbed Region of the Well [2, 19]: +4
- Migration Grade in the Cleared Area of the Well [2, 19]: +3
- Migration Grade in an Undisturbed Region of the Well [2, 20]: +4
- Migration Grade in the Cleared Area of the Well [2, 20]: +3
- Migration Grade in an Undisturbed Region of the Well [2, 21]: +4
- Migration Grade in the Cleared Area of the Well [2, 21]: +3
- Migration Grade in an Undisturbed Region of the Well [2, 22]: +4
- Migration Grade in the Cleared Area of the Well [2, 22]: +3
- Migration Grade in an Undisturbed Region of the Well [2, 23]: +3
- Migration Grade in the Cleared Area of the Well [2, 23]: +1
- Migration Grade in an Undisturbed Region of the Well [2, 24]: +4
- Migration Grade in the Cleared Area of the Well [2, 24]: +1
- Migration Grade in an Undisturbed Region of the Well [2, 25]: +4
- Migration Grade in the Cleared Area of the Well [2, 25]: +2
- Migration Grade in an Undisturbed Region of the Well [2, 26]: +4
- Migration Grade in the Cleared Area of the Well [2, 26]: +2
- Migration Grade in an Undisturbed Region of the Well [2, 27]: +4
- Migration Grade in the Cleared Area of the Well [2, 27]: +2
- Migration Grade in an Undisturbed Region of the Well [2, 28]: +2
- Migration Grade in the Cleared Area of the Well [2, 28]: -
- Migration Grade in an Undisturbed Region of the Well [2, 29]: +2
- Migration Grade in the Cleared Area of the Well [2, 29]: -
- Migration Grade in an Undisturbed Region of the Well [2, 30]: +2
- Migration Grade in the Cleared Area of the Well [2, 30]: -
- Migration Grade in an Undisturbed Region of the Well [2, 31]: +2
- Migration Grade in the Cleared Area of the Well [2, 31]: -
- Migration Grade in an Undisturbed Region of the Well [2, 32]: +2
- Migration Grade in the Cleared Area of the Well [2, 32]: -
